Legend:
Thromboxane A2 receptor [1] = biological target: T1, Thromboxane A2 receptor (Homo sapiens, UniProt P21731); assay: Inhibition of [3H]SQ-29,548 binding to human Thromboxane A2 receptor
T1 sequence (P21731 whole entry): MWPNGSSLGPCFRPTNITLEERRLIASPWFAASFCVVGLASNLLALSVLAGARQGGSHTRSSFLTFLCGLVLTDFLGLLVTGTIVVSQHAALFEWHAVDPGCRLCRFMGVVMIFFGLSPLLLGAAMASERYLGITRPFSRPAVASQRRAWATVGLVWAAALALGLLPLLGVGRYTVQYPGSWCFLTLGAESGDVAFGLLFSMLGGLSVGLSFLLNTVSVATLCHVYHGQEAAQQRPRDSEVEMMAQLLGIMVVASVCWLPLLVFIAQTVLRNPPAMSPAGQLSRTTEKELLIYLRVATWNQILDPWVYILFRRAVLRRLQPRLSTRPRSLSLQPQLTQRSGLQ

[2] = biological target: T2, Prostaglandin D2 receptor 2 (Homo sapiens, UniProt Q9Y5Y4); assay: Inhibition of beta-arrestin translocation at human chemoattractant receptor-homologous molecule expressed on TH2 cells in BRET assay; type: functional, cell-based
T2 sequence (Q9Y5Y4 whole entry): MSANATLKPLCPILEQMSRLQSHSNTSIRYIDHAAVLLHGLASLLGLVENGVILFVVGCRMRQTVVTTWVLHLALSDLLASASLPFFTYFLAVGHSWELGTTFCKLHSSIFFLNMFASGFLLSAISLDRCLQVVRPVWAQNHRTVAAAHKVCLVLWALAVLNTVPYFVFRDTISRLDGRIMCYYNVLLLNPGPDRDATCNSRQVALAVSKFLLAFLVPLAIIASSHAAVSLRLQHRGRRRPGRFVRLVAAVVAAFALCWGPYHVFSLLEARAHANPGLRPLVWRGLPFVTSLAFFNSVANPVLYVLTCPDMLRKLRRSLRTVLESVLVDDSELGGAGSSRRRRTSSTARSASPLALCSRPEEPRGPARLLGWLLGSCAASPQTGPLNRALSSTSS

Thromboxane A2 receptor [3] = biological target: T1, Thromboxane A2 receptor; assay: Inhibition of U-46,619-induced inositol phosphate accumulation at human Thromboxane A2 receptor; type: functional
[4] = biological target: T2, Prostaglandin D2 receptor 2; assay: Inhibition of [3H]PGD-2 binding to human chemoattractant receptor-homologous molecule expressed on Th2 cells (CRTH2); type: cell-based
[5] = biological target: T2, Prostaglandin D2 receptor 2; assay: Inhibition of PGD2-induced inositol phosphate formation at human chemoattractant receptor-homologous molecule expressed on TH2 cells; type: functional, cell-based
[6] = biological target: T3, Prostaglandin D2 receptor (Homo sapiens, UniProt Q13258); assay: Inhibition of [3H]-PGD-2 binding to human Prostaglandin D2 receptor
T3 sequence (Q13258 whole entry): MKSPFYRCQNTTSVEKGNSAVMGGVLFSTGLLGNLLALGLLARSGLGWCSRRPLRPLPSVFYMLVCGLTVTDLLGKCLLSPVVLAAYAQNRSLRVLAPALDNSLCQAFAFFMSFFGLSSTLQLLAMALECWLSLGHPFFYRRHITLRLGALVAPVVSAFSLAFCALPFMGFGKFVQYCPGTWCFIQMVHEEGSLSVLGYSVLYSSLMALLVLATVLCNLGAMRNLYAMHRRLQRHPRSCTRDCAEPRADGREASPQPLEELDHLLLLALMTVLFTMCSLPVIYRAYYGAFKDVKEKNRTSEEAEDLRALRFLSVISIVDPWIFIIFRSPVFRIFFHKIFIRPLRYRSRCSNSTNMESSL

[7] = biological target: T3, Prostaglandin D2 receptor; assay: Inhibition of PGD2-induced inositol phosphate formation at human Prostaglandin D2 receptor; type: functional
Thromboxane A2 receptor [8] = biological target: T1, Thromboxane A2 receptor; assay: Inhibition of beta-arrestin translocation at human Thromboxane A2 receptor in BRET assay; type: functional

Compound O=C(O)Cn1c2c(c3ccccc31)C[C@H](NS(=O)(=O)c1ccc(F)cc1)CC2 has a Ki (Thromboxane A2 receptor [1]) of 540 nM, an IC50 [2] of 3.8 nM and an IC50 (Thromboxane A2 receptor [3]) of 1700 nM. It also gave a Ki [4] of 0.51 nM, an IC50 [5] of 3.8 nM and a Ki [6] of 5300 nM. The IC50 [7] was greater than 10000 nM.
For CN([C@@H]1CCc2c(c3ccccc3n2CCC(=O)O)C1)S(=O)(=O)c1ccc(F)cc1, the Ki (Thromboxane A2 receptor [1]) was 3000 nM, the IC50 [2] was 15 nM and the IC50 (Thromboxane A2 receptor [3]) was 4600 nM. The Ki [4] was 1.9 nM, the IC50 [5] was 26 nM and the Ki [6] was 6100 nM. It also gave an IC50 [7] greater than 10000 nM.
For O=C(O)CCn1c2c(c3ccccc31)C[C@H](NS(=O)(=O)c1ccc(F)cc1)CC2 [RAMATROBAN], the IC50 (Thromboxane A2 receptor [8]) was 8.4 nM, the Ki (Thromboxane A2 receptor [1]) was 4.5 nM and the IC50 [2] was 28 nM. For the same compound, the IC50 (Thromboxane A2 receptor [3]) was 9.6 nM, the Ki [4] was 4.3 nM and the IC50 [5] was 29 nM. The Ki [6] was greater than 10000 nM and the IC50 [7] was greater than 10000 nM.
